The nature of data set [1]: Cytotoxicity against CEF cells by MTT assay. The format is cell-based, Gallus gallus. Conditions: chicken. A general note: Formazan colour is commonly taken as a measure of viable cells.
The test system of the next data set is Influenza A virus. Nature of the data set: Antiviral activity against Influenza A virus (A/Korea/KBNP-0028/2000(H9N2)) infected in chicken egg after 5 days by hemagglutinination assay. The format is functional, organism-based. Particulars: 120 h.
Data set [2] in a line: Selectivity index, ratio of CC50 for CEF cells to EC50 for Influenza A virus (A/Korea/KBNP-0028/2000(H9N2)). The format is toxicity, cell-based. Conditions: chicken.

The CC50 is the concentration at which the toxic effect on the cells reaches its halfway point. A higher CC50 goes with lower toxicity to the cells. Usually EC50 stands for the concentration needed to bring the measured effect to its halfway point. Low values mean higher potency in that assay, high ones lower potency in that assay.

In turn, `COc1cc(/C=C/C(=O)O[C@H]2[C@H](O[C@@H](CCc3ccc(O)c(O)c3)CC(=O)CCc3ccc(O)c(O)c3)OC[C@@H](O)[C@@H]2O)ccc1O` [OREGONOYL B] returned a CC50 in data set [1] above 500 µM. The compound further came in with an EC50 in the data set on Influenza A virus above 350 µM.
The corresponding values for `O=C(CCc1ccc(O)c(O)c1)C[C@H](CCc1cccc(O)c1)O[C@@H]1OC[C@@H](O)[C@H](O)[C@H]1O` [ALNUSIDE A] are above 500 µM and above 350 µM.
The corresponding values for `O=C(/C=C/CCc1ccc(O)c(O)c1)CCc1ccc(O)c(O)c1` [DEHYDROHIRSUTANONOL] are above 500 µM and above 350 µM.
On to `CC(=O)N[C@H]1[C@H]([C@H](O)[C@H](O)CO)OC(C(=O)O)=C[C@@H]1N=C(N)N` [ZANAMIVIR], for which the selectivity ratio in data set [2] is above 44. Further, in data set [1], the CC50 was above 753 µM.
On to `O=C(CCc1ccc(O)cc1)C[C@H](CCc1cccc(O)c1)O[C@@H]1OC[C@@H](O)[C@H](O)[C@H]1O`, for which, in data set [2], the selectivity ratio was above 10. In addition, the CC50 in data set [1] was above 560 µM. Further, the EC50 in the data set with Influenza A virus worked out at 56.1 µM.
In turn, `O=C(CCc1ccc(O)c(O)c1)C[C@@H](O)CCc1ccc(O)c(O)c1` [HIRSUTANONOL] gave a CC50 in data set [1] above 500 µM. This compound also registered an EC50 in the data set on Influenza A virus above 350 µM.
In the same order, the values of `O=C(CCc1ccc(O)c(O)c1)C[C@H](CCc1ccc(O)c(O)c1)O[C@@H]1OC[C@@H](O)[C@H](O)[C@H]1OC(=O)/C=C/c1ccc(O)cc1` [OREGONOYL A] are above 500 µM and above 350 µM.

The values are drawn from ChEMBL document CHEMBL1159081, “Anti-influenza diarylheptanoids from the bark of Alnus japonica” (Bioorg Med Chem Lett, 2010).
